Results as given in PMC9668304 (2022).

What was measured:
[1] = tested on: aminoglycoside aptamer (tobramycin-binding aptamer) (DNA, aptamer) GGGACTTGGTTTAGGTAATGAGTCCC; test: square-wave pulsed OECT (aptamer on gate), 70 Hz; settings: 137 mM NaCl, 2.7 mM KCl; 1x PBS, ambient temperature; saturable Langmuir-Hill isotherm, reversible; immobilised aptamer
[2] = tested on: aminoglycoside aptamer (tobramycin-binding aptamer) (DNA, aptamer) GGGACTTGGTTTAGGTAATGAGTCCC; test: three-electrode square-wave voltammetry, 240 Hz; settings: 137 mM NaCl, 2.7 mM KCl; 1x PBS, ambient temperature; saturable Langmuir-Hill isotherm, reversible; immobilised aptamer

binding [1]: yes
binding [2]: yes
SMILES: NC[C@H]1O[C@H](O[C@H]2[C@H](O)[C@@H](O[C@H]3O[C@H](CO)[C@@H](O)[C@H](N)[C@H]3O)[C@H](N)C[C@@H]2N)[C@H](N)C[C@@H]1O
